pIC50, pKi: −log10 of the molar value.
Assays:
Leukotriene C4 synthase = molecular target: T1, Leukotriene C4 synthase (Cavia porcellus, UniProt A6XA80); type: tissue-based, Lung;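 note: enzyme inhibition assay of leukotriene C4 synthase, using LTA4 as the substrate; in other assays of this panel Not Active means under 50% inhibition at 10 µM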
T1 sequence (A6XA80 whole entry): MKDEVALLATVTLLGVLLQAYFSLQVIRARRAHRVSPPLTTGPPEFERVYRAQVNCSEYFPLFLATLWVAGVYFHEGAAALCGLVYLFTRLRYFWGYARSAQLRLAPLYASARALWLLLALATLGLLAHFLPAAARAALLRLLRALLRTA

Cytochrome P450 2C9 = Cytochrome P450 2C9 (Homo sapiens, UniProt P11712); settings: bti-tn-5b1-4; note: in other assays of this panel Not Active means under 50% inhibition at 10 µM
Cytochrome P450 2C9, sequence (P11712 whole entry): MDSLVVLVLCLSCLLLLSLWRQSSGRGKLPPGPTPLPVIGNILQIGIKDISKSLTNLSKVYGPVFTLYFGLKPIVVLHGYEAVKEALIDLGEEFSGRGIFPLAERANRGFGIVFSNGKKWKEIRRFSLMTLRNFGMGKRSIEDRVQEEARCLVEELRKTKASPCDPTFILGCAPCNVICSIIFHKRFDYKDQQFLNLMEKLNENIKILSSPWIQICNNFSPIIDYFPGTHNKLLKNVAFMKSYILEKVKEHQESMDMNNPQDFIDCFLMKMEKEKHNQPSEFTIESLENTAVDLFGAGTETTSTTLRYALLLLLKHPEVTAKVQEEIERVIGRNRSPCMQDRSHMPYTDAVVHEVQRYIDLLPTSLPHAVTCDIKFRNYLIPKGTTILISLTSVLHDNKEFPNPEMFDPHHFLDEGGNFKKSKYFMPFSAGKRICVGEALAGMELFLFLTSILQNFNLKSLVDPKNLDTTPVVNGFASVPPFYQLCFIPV

[1] = DRUGMATRIX: Phosphodiesterase PDE3 enzyme inhibition (substrate: [3H]cAMP + cAMP); type: tissue-based, Homo sapiens; settings: platelet; Not Active = under 50% inhibition at 10 µM
Neutrophil elastase = molecular target: T2, Neutrophil elastase (Homo sapiens, UniProt P08246); type: tissue-based;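 note: inhibition of neutrophil elastase enzyme activity, measured with a p-nitroanilide-linked peptide substrate; in other assays of this panel Not Active means under 50% inhibition at 10 µM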
T2 sequence (P08246 whole entry): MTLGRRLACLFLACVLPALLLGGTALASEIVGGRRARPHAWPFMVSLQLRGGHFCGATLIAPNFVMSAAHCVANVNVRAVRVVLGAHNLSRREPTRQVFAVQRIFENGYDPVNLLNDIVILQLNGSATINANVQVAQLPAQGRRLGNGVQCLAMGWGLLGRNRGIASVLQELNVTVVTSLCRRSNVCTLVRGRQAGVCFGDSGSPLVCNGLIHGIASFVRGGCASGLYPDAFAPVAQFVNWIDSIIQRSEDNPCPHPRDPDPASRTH

[2] = molecular target: Prostaglandin G/H synthase 1 (Homo sapiens, UniProt P23219); test: biochemical; type: tissue-based, Platelet; settings: platelet;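 note: inhibition of COX-1 enzyme activity, with arachidonic acid supplied as substrate; in other assays of this panel Not Active means under 50% inhibition at 10 µM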
Prostaglandin G/H synthase 1, sequence (P23219 whole entry): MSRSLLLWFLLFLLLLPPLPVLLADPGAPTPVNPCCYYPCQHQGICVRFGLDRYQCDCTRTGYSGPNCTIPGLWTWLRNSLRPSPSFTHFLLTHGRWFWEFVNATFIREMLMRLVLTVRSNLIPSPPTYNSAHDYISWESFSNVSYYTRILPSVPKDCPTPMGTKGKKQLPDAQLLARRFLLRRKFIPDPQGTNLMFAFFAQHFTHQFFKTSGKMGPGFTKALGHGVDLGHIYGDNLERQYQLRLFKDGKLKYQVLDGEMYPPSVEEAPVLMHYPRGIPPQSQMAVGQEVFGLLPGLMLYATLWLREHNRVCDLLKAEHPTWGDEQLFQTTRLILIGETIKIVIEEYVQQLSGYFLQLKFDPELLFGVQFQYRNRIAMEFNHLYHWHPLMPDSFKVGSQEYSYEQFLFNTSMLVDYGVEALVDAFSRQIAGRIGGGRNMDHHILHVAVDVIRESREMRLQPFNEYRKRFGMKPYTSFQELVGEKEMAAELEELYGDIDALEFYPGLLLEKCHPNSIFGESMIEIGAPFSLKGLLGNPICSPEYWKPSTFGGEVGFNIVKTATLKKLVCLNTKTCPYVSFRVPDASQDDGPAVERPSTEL

[3] = molecular target: 5-hydroxytryptamine receptor 4 (Cavia porcellus, UniProt O70528); type: cell membranes, Dunkin-Hartley, Striatum, Membrane; note: in other assays of this panel Not Active means under 50% inhibition at 10 µM
5-hydroxytryptamine receptor 4, sequence (O70528 whole entry): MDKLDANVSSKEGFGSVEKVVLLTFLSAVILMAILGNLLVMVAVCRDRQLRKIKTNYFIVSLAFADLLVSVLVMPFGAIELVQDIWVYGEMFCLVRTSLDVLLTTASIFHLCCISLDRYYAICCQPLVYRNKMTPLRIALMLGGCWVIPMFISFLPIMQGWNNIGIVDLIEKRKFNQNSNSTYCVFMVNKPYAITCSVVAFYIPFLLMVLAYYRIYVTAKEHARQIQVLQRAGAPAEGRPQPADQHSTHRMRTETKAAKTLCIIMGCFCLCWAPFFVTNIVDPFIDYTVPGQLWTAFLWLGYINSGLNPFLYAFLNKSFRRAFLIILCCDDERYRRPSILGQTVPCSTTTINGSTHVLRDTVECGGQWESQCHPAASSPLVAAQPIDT

[4] = molecular target: C-C chemokine receptor type 5 (Homo sapiens, UniProt P51681); type: cell membranes, Membrane; settings: hek293; note: in other assays of this panel Not Active means under 50% inhibition at 10 µM
C-C chemokine receptor type 5, sequence (P51681 whole entry): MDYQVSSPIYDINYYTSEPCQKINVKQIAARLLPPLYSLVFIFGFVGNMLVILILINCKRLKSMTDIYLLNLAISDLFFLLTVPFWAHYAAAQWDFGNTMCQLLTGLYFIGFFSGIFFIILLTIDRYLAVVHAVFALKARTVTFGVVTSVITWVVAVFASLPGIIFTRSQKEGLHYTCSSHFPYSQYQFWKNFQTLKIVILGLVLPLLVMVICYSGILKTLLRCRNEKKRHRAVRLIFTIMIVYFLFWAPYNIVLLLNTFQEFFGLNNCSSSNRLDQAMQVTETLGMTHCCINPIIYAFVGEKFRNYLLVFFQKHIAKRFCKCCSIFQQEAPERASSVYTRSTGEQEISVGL

Adenosine receptor A3 = molecular target: T3, Adenosine receptor A3 (Homo sapiens, UniProt P0DMS8); type: cell membranes, CHO-K1, Membrane; settings: for pIC50: read-out: IC50; for pKi: read-out: Ki
T3 sequence (P0DMS8 whole entry): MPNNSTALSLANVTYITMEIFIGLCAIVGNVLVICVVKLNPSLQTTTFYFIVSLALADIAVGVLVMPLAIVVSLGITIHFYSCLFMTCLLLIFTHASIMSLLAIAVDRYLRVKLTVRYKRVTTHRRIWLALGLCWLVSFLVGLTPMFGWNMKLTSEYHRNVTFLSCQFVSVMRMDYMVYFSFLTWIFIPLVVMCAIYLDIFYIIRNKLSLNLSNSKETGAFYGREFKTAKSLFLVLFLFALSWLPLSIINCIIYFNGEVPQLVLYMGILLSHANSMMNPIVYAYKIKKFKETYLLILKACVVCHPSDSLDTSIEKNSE

Row | Compound | IC50 (Leukotriene C4 synthase) | Ki (Leukotriene C4 synthase) | IC50 (Cytochrome P450 2C9) | Ki (Cytochrome P450 2C9) | IC50 [1] | Ki [1] | IC50 (Neutrophil elastase) | Ki (Neutrophil elastase) | IC50 [2] | Ki [2] | IC50 [3] | Ki [3] | IC50 [4] | Ki [4] | IC50 (Adenosine receptor A3; cho-k1) | Ki (Adenosine receptor A3; cho-k1) | pIC50 (Adenosine receptor A3) | pKi (Adenosine receptor A3)
1 | STANNOUS FLUORIDE | Not Active | Not Active | Not Active | Not Active | Not Active | Not Active | Not Active | Not Active | Not Active | Not Active | Not Active | Not Active | Not Active | Not Active | Not Active | Not Active | – | –
2 | C[C@@H](O)[C@H]1C(=O)N2C(C(=O)O)=C(S[C@@H]3CN[C@H](C(=O)N(C)C)C3)[C@H](C)[C@H]12 [MEROPENEM] | Not Active | – | Not Active | Not Active | Not Active | Not Active | Not Active | – | Not Active | – | Not Active | – | Not Active | – | Not Active | – | – | –
3 | COc1ncnc(NS(=O)(=O)c2ccc(N)cc2)c1OC [SULFADOXINE] | Not Active | – | Not Active | Not Active | Not Active | Not Active | Not Active | – | Not Active | – | Not Active | – | Not Active | – | Not Active | – | – | –
4 | CCCc1nn(C)c2c(=O)[nH]c(-c3cc(S(=O)(=O)N4CCN(C)CC4)ccc3OCC)nc12 | Not Active | – | Not Active | Not Active | Not Active | Not Active | Not Active | – | Not Active | – | Not Active | – | Not Active | – | Not Active | – | – | –
5 | COc1ccc(/C=C/C(=O)Nc2ccccc2C(=O)O)cc1OC | Not Active | – | Not Active | Not Active | Not Active | Not Active | Not Active | – | Not Active | – | Not Active | – | Not Active | – | Not Active | – | – | –
6 | CC1=C(CC(=O)O)c2cc(F)ccc2/C1=C\c1ccc(S(C)(=O)=O)cc1 [EXISULIND] | Not Active | – | Not Active | Not Active | Not Active | Not Active | Not Active | – | Not Active | – | Not Active | – | Not Active | – | Not Active | – | – | –
7 | CN1C2CCCC1CC(NC(=O)c1nn(C)c3ccccc13)C2 (configuration not stated) [GRANISETRON] | Not Active | – | Not Active | Not Active | – | – | Not Active | – | Not Active | – | Not Active | – | Not Active | – | Not Active | – | – | –
8 | Cc1cn([C@H]2C[C@H](N=[N+]=[N-])[C@@H](CO)O2)c(=O)[nH]c1=O [ZIDOVUDINE] | Not Active | – | Not Active | Not Active | Not Active | Not Active | Not Active | – | Not Active | – | Not Active | – | Not Active | – | Not Active | – | – | –
9 | OCCN1CCN(CCCN2c3ccccc3Sc3ccc(C(F)(F)F)cc32)CC1 [FLUPHENAZINE] | Not Active | – | – | – | – | – | Not Active | – | Not Active | – | Not Active | – | Not Active | – | – | – | 4.92 | 5.17
10 | CC(C)(C)NC[C@H](O)COc1nsnc1N1CCOCC1 [TIMOLOL] | Not Active | – | Not Active | Not Active | Not Active | Not Active | Not Active | – | Not Active | – | Not Active | – | Not Active | – | Not Active | – | – | –
11 | Nc1nc2c(c(=O)[nH]1)N(C=O)C(CNc1ccc(C(=O)N[C@@H](CCC(=O)O)C(=O)O)cc1)CN2 (some centres not stated) [LEUCOVORIN] | Not Active | – | Not Active | Not Active | Not Active | Not Active | Not Active | – | Not Active | – | Not Active | – | Not Active | – | Not Active | – | – | –
12 | O=c1n(CCCN2CCN(c3cccc(Cl)c3)CC2)nc2ccccn12 [TRAZODONE] | Not Active | – | Not Active | Not Active | – | – | Not Active | – | Not Active | – | Not Active | – | Not Active | – | Not Active | – | – | –
13 | COc1cc(C(=O)NS(=O)(=O)c2ccccc2C)ccc1Cc1cn(C)c2ccc(NC(=O)OC3CCCC3)cc12 [ZAFIRLUKAST] | Not Active | – | – | – | Not Active | Not Active | Not Active | – | Not Active | – | Not Active | – | Not Active | – | – | – | 5.87 | 6.11
14 | CCOC(N)=O | Not Active | – | Not Active | Not Active | Not Active | Not Active | Not Active | – | Not Active | – | Not Active | – | Not Active | – | Not Active | – | – | –
15 | CN(CCOc1ccc(CC2SC(=O)NC2=O)cc1)c1ccccn1 (configuration not stated) [ROSIGLITAZONE] | Not Active | – | Not Active | Not Active | Not Active | Not Active | Not Active | – | Not Active | – | Not Active | – | Not Active | – | Not Active | – | – | –
16 | CC(=O)O[C@H]1C[C@@H]2CC[C@@H]3[C@H](CC[C@@]4(C)[C@H]3C[C@H]([N+]3(C)CCCCC3)[C@@H]4OC(C)=O)[C@@]2(C)C[C@@H]1N1CCCCC1.[Br-] [VECURONIUM BROMIDE] | Not Active | – | Not Active | Not Active | Not Active | Not Active | Not Active | – | Not Active | – | Not Active | – | Not Active | – | Not Active | – | – | –
17 | CCS(=O)(=O)CCn1c([N+](=O)[O-])cnc1C [TINIDAZOLE] | Not Active | – | – | – | Not Active | Not Active | Not Active | – | Not Active | – | Not Active | – | Not Active | – | Not Active | – | – | –
18 | CC(C)OC(=O)C(C)(C)Oc1ccc(C(=O)c2ccc(Cl)cc2)cc1 [FENOFIBRATE] | Not Active | – | Not Active | Not Active | – | – | Not Active | – | Not Active | – | Not Active | – | Not Active | – | – | – | 5.24 | 5.49
19 | CCN(CC)CC#CCOC(=O)C(O)(c1ccccc1)C1CCCCC1 (configuration not stated) [OXYBUTYNIN] | Not Active | – | Not Active | Not Active | – | – | Not Active | – | Not Active | – | Not Active | – | Not Active | – | Not Active | – | – | –
20 | CC(=O)Nc1nnc(S(N)(=O)=O)s1 [ACETAZOLAMIDE] | Not Active | – | Not Active | Not Active | – | – | Not Active | – | Not Active | – | Not Active | – | Not Active | – | Not Active | – | – | –
21 | COc1cc(N)nc2[nH]c(-c3ccc(F)cc3)c(-c3ccncc3)c12 | Not Active | – | – | – | Not Active | Not Active | Not Active | – | Not Active | – | Not Active | – | Not Active | – | Not Active | – | – | –
22 | CC[C@@H](CO)NC(=O)[C@@H]1C=C2c3cccc4c3c(cn4C)C[C@H]2N(C)C1 [METHYSERGIDE] | Not Active | – | Not Active | Not Active | – | – | Not Active | – | Not Active | – | Not Active | – | Not Active | – | Not Active | – | – | –
23 | C[C@]12CC[C@H]3[C@@H](CCC4=CC(=O)CC[C@@]43C)[C@@H]1CC[C@@H]2O [TESTOSTERONE] | Not Active | – | – | – | Not Active | Not Active | Not Active | – | Not Active | – | Not Active | – | Not Active | – | Not Active | – | – | –
24 | CO[C@H]1C[C@@H]2CC[C@@H](C)[C@@](O)(O2)C(=O)C(=O)N2CCCC[C@H]2C(=O)O[C@H]([C@H](C)C[C@@H]2CC[C@@H](O)[C@H](OC)C2)CC(=O)[C@H](C)/C=C(\C)[C@@H](O)[C@@H](OC)C(=O)[C@H](C)C[C@H](C)/C=C/C=C/C=C/1C [SIROLIMUS] | Not Active | – | – | – | Not Active | Not Active | Not Active | – | Not Active | – | Not Active | – | Not Active | – | Not Active | – | – | –
25 | O=c1[nH]c2ccccc2n1CCCN1CCC(n2c(=O)[nH]c3cc(Cl)ccc32)CC1 [DOMPERIDONE] | Not Active | – | – | – | – | – | Not Active | – | Not Active | – | Not Active | – | Not Active | – | Not Active | – | – | –
26 | COc1ccc(CN2CCNCC2)c(OC)c1OC [TRIMETAZIDINE] | Not Active | – | – | – | Not Active | Not Active | Not Active | – | Not Active | – | Not Active | – | Not Active | – | Not Active | – | – | –
